Patent US20240210412A1, “SULFONYL-TRIAZOLE COMPOUNDS USEFUL AS LIGANDS AND INHIBITORS OF PROSTAGLANDIN REDUCTASE 2” (University of Virginia Patent Foundation, priority 2021, published 2024)

Assays:
Experiment in all cases: SILAC LC-MS ABPP
Assay type in all cases: cell-based
Details in all cases: 25 μM 2 h, live DM93 cells
Q13011 = target: T1, Q13011 (Homo sapiens, UniProt Q13011)
T1 construct: performing SuTEx compound screening directly in cells; endogenous in cells; host or cells: DM93 cells (SILAC)
T1 sequence (Q13011 34-328): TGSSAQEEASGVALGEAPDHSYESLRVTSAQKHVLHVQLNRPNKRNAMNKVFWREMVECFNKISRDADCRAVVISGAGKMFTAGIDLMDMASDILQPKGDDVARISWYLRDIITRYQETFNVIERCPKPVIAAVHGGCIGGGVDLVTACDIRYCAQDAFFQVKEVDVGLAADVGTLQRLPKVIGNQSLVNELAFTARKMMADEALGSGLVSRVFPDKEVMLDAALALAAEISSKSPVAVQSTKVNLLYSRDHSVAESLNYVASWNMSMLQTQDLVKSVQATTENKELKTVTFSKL
How it was run: (§1)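 Competitive activity-based profiling in isotopically labelled DM93 melanoma cells. Heavy cells received 25 μM sulfonyl-triazole ligand and light cells vehicle, each for 2 h at 37 °C, before 2 h with 100 μM HHS-475. Labelled soluble proteins were tagged via CuAAC, combined, digested and enriched before LC-MS/MS.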

Q9H788 = target: T2, Q9H788 (Homo sapiens, UniProt Q9H788)
T2 construct: endogenous in cells; host or cells: DM93 cells (SILAC), treated live; soluble proteome analysed
How it was run: as §1

P20618 = target: T3, P20618 (Homo sapiens, UniProt P20618)
T3 construct: endogenous in cells; host or cells: DM93 (SILAC)
How it was run: as §1

P30533 = target: T4, P30533 (Homo sapiens, UniProt P30533)
T4 construct: endogenous in cells; host or cells: DM93 (SILAC)
How it was run: as §1

Q9UQ35 = target: T5, Q9UQ35 (Homo sapiens, UniProt Q9UQ35)
T5 construct: endogenous in cells; host or cells: DM93 cells (SILAC)
How it was run: as §1

O43390 = target: T6, O43390 (Homo sapiens, UniProt O43390)
T6 construct: endogenous in cells; host or cells: DM93
How it was run: as §1

Q9UPP1 = target: T7, Q9UPP1 (Homo sapiens, UniProt Q9UPP1)
T7 construct: endogenous in cells; host or cells: DM93 cells (SILAC)
How it was run: as §1

Q9Y2W1 = target: T8, Q9Y2W1 (Homo sapiens, UniProt Q9Y2W1)
T8 construct: endogenous in cells; host or cells: DM93 cells (SILAC)
T8 sequence (Q9Y2W1 whole entry): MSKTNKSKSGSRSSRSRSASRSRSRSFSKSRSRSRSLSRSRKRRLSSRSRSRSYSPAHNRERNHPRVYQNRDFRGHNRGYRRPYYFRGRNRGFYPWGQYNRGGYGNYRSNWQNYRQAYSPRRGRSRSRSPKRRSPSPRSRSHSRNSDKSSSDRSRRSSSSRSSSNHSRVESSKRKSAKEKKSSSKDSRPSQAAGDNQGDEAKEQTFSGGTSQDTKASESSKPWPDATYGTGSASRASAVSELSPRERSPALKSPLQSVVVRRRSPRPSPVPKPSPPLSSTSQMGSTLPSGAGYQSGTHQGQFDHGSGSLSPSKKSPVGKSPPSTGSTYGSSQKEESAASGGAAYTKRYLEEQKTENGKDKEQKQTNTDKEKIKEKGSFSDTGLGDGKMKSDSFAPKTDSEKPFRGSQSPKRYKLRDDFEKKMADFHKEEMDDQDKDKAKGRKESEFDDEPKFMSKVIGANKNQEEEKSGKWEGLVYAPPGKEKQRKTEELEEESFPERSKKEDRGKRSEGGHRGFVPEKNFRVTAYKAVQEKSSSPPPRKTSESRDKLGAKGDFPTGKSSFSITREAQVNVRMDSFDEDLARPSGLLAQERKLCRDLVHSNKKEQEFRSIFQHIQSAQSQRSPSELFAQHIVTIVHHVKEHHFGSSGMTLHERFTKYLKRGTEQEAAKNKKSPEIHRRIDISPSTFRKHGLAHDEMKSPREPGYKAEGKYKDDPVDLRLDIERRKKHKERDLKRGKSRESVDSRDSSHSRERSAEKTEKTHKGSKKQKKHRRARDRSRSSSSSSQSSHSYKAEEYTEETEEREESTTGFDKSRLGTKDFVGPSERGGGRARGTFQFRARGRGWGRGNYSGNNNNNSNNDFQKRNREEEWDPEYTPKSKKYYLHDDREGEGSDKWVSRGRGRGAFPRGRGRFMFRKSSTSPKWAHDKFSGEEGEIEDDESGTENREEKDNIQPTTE
How it was run: as §1

P46013 = target: T9, P46013 (Homo sapiens, UniProt P46013)
T9 construct: endogenous in cells; host or cells: DM93 cells (SILAC)
T9 sequence (P46013 whole entry): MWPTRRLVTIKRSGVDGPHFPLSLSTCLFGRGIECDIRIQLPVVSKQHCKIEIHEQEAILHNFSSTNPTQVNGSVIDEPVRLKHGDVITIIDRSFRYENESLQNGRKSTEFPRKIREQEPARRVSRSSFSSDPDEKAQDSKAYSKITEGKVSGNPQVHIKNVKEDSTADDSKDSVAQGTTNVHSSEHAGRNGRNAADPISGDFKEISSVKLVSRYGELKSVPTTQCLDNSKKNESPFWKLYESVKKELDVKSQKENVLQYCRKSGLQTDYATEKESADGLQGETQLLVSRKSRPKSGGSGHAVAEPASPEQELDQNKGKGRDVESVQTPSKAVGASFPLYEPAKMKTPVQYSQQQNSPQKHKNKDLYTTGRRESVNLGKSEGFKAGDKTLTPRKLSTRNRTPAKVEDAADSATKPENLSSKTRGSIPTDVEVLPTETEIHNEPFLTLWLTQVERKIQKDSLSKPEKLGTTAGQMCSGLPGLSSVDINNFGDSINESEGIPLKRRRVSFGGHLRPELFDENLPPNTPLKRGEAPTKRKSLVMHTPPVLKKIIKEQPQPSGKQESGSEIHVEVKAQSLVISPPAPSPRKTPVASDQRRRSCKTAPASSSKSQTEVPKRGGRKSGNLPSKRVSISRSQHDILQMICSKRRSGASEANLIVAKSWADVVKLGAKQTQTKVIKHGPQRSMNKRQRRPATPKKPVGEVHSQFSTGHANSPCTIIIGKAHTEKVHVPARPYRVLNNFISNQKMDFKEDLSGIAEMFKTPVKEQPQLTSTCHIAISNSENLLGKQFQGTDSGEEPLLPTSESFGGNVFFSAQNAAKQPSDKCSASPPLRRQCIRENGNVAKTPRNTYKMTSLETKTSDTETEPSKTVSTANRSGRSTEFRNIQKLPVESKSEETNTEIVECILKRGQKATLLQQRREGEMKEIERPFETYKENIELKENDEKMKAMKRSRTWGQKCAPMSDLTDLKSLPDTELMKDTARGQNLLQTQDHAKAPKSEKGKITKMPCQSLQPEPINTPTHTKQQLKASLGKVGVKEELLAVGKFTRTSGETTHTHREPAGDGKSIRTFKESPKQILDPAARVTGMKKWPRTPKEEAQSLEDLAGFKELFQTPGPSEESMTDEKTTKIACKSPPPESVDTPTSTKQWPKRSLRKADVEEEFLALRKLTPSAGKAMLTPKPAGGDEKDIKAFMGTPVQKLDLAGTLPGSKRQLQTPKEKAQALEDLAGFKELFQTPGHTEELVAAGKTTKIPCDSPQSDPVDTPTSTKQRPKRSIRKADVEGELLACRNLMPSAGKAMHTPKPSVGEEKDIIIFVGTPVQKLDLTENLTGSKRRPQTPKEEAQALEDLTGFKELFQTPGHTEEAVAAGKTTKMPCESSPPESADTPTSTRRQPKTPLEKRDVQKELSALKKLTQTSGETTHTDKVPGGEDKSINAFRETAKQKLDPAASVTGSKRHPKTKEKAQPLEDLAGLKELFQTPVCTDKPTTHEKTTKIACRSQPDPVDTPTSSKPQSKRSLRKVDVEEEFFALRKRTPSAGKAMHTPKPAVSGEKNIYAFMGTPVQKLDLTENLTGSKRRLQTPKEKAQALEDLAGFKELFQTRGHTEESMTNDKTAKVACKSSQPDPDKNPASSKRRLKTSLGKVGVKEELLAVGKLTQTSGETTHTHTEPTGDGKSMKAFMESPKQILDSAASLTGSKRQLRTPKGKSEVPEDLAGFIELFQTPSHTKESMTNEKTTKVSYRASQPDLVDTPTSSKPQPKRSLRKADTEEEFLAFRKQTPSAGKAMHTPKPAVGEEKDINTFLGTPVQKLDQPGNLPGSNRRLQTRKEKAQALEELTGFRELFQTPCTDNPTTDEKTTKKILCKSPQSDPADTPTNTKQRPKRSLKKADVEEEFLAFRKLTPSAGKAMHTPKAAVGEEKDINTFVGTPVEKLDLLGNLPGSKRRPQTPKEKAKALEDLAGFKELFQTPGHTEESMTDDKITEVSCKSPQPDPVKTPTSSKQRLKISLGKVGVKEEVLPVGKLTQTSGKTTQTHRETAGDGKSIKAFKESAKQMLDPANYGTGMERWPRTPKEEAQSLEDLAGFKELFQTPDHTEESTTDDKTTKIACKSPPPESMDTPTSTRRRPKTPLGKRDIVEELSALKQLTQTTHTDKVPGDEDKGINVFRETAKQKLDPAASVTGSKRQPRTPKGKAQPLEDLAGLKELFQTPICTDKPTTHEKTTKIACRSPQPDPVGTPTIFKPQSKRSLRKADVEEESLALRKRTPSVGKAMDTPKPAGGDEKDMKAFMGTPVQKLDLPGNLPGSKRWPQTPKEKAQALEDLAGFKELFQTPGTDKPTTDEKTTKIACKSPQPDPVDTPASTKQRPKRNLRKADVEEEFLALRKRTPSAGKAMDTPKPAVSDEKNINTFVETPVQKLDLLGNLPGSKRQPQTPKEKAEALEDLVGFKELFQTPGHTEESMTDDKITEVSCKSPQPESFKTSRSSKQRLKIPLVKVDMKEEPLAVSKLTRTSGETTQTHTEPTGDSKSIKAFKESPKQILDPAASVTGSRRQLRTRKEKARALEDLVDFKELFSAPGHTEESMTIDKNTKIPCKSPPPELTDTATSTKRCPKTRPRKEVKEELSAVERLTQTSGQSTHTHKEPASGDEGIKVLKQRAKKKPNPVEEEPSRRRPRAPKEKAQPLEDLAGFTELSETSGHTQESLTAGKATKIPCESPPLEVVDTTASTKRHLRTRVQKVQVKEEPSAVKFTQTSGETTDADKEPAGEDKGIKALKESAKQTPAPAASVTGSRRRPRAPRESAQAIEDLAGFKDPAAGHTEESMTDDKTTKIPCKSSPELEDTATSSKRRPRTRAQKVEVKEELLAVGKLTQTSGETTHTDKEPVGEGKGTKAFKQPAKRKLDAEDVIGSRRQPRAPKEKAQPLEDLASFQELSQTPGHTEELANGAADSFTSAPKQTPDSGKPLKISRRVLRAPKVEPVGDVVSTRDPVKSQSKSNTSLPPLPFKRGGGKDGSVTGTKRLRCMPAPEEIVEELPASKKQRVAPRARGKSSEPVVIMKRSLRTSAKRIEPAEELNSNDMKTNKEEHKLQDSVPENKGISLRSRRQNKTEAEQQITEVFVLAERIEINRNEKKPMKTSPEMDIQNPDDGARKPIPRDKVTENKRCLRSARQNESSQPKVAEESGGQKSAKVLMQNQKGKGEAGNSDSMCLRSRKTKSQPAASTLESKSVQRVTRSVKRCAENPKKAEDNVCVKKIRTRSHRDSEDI
How it was run: as §1

P57081 = target: T10, P57081 (Homo sapiens, UniProt P57081)
T10 construct: Probe-modified proteins from the soluble fraction were conjugated to a desthiobiotin-azide tag; endogenous in cells; host or cells: DM93 cells (SILAC)
How it was run: as §1

O94925 = target: T11, O94925 (Homo sapiens, UniProt O94925)
T11 construct: endogenous in cells; host or cells: DM93 cells (SILAC)
T11 sequence (O94925 55-669): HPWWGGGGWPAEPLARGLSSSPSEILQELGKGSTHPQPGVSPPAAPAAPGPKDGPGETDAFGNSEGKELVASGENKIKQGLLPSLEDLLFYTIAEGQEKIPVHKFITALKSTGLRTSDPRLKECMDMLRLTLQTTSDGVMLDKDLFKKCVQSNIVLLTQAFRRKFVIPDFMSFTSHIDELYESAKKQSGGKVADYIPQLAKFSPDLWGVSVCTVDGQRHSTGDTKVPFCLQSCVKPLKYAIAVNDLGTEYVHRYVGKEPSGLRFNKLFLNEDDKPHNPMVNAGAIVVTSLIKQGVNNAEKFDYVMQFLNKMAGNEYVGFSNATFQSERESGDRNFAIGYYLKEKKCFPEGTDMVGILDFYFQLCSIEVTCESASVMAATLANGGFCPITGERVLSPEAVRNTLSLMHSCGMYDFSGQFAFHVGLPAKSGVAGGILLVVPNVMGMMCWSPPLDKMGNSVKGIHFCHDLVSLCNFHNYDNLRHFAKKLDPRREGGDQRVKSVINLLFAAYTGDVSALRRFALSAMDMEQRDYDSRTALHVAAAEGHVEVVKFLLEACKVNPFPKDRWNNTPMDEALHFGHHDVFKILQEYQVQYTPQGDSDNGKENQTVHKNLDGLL
How it was run: as §1

O95757 = target: T12, O95757 (Homo sapiens, UniProt O95757)
T12 construct: endogenous in cells; host or cells: DM93 cells (SILAC)
How it was run: as §1

P60900 = target: T13, P60900 (Homo sapiens, UniProt P60900)
T13 construct: endogenous in cells; host or cells: DM93 cells (SILAC)
How it was run: as §1

Q14847 = target: T14, Q14847 (Homo sapiens, UniProt Q14847)
T14 construct: performing SuTEx compound screening directly in cells; endogenous in cells; host or cells: DM93 cells (SILAC), soluble fraction
How it was run: as §1

Q9BXJ9 = target: T15, Q9BXJ9 (Homo sapiens, UniProt Q9BXJ9)
T15 construct: endogenous in cells; host or cells: DM93 cells (SILAC), treated live; soluble proteome analysed
How it was run: as §1

In the case of `O=C(c1ccc(S(=O)(=O)n2cncn2)cc1)N1CCC(c2ccccc2)CC1` [HHS-0701, (4-((1H-1,2,4-triazol-1-yl)sulfonyl)phenyl)(4-phenylpiperidin-1-yl)methanone], the “liganded tyrosine site 149” value (Q13011) is reported as “HHS0701.Y (tyrosine sites that showed >80% reductions (SR >5) in probe labeling in cells treated with compounds (liganded sites))” and the “liganded tyrosine site 194” value (Q9H788) is reported as “HHS0701.Y (tyrosine sites that showed >80% reductions (SR >5) in probe labeling in cells treated with compounds (liganded sites))”.
`O=C(NC1CCCCC1)c1ccc(S(=O)(=O)n2cncn2)cc1` [HHS-0301, 4-((1H-1,2,4-triazol-1-yl)sulfonyl)-N-cyclohexylbenzamide] was tested, and the “liganded tyrosine site 135” value (P20618) was “HHS0301.Y (tyrosine sites that showed >80% reductions (SR >5) in probe labeling in cells treated with compounds (liganded sites))”, the “liganded tyrosine site 336” value (P30533) was “HHS0301.Y|HHS0701.Y (tyrosine sites that showed >80% reductions (SR >5) in probe labeling in cells treated with compounds (liganded sites))” and the “liganded tyrosine site 2390” value (Q9UQ35) was “HHS0301.Y (tyrosine sites that showed >80% reductions (SR >5) in probe labeling in cells treated with compounds (liganded sites))”.
In the case of `O=C(NCC1CC1)c1ccc(S(=O)(=O)n2cncn2)cc1` [HHS-0201, 4-((1H-1,2,4-triazol-1-yl)sulfonyl)-N-(cyclopropylmethyl)benzamide], the “liganded tyrosine site 578” value (O43390) is reported as “HHS0201.Y|HHS0301.Y|HHS0401.Y|HHS0701.Y (tyrosine sites that showed >80% reductions (SR >5) in probe labeling in cells treated with compounds (liganded sites))”, the “liganded tyrosine site 383” value (Q9UPP1) is reported as “HHS0201.Y (tyrosine sites that showed >80% reductions (SR >5) in probe labeling in cells treated with compounds (liganded sites))” and the “liganded tyrosine site 344” value (Q9Y2W1) is reported as “HHS0201.Y|HHS0301.Y (tyrosine sites that showed >80% reductions (SR >5) in probe labeling in cells treated with compounds (liganded sites))”.
For `O=C(NCc1ccccc1)c1ccc(S(=O)(=O)n2cncn2)cc1` [HHS-0401, 4-((1H-1,2,4-triazol-1-yl)sulfonyl)-N-benzylbenzamide], the “liganded tyrosine site 340” value (P46013) was “HHS0401.Y|HHS0701.Y (tyrosine sites that showed >80% reductions (SR >5) in probe labeling in cells treated with compounds (liganded sites))” and the “liganded tyrosine site 371” value (P57081) was “HHS0401.Y (tyrosine sites that showed >80% reductions (SR >5) in probe labeling in cells treated with compounds (liganded sites))”.
In the case of `O=C(NC1CC1)c1ccc(S(=O)(=O)n2cncn2)cc1` [HHS-0101, 4-((1H-1,2,4-triazol-1-yl)sulfonyl)-N-cyclopropylbenzamide], the “liganded tyrosine site 145” value (O94925) is reported as “HHS0101.Y (tyrosine sites that showed >80% reductions (SR >5) in probe labeling in cells treated with compounds (liganded sites))”, the “liganded tyrosine site 304” value (O94925) is reported as “HHS0101.Y (tyrosine sites that showed >80% reductions (SR >5) in probe labeling in cells treated with compounds (liganded sites))” and the “liganded tyrosine site 639” value (O95757) is reported as “HHS0101.Y|HHS0301.Y|HHS0401.Y (tyrosine sites that showed >80% reductions (SR >5) in probe labeling in cells treated with compounds (liganded sites))”. The “liganded tyrosine site 103” value (P60900) was “HHS0101.Y|HHS0201.Y|HHS0401.Y (tyrosine sites that showed >80% reductions (SR >5) in probe labeling in cells treated with compounds (liganded sites))”, the “liganded tyrosine site 57” value (Q14847) was “HHS0101.Y (tyrosine sites that showed >80% reductions (SR >5) in probe labeling in cells treated with compounds (liganded sites))” and the “liganded tyrosine site 86” value (Q9BXJ9) was “HHS0101.Y|HHS0701.Y (tyrosine sites that showed >80% reductions (SR >5) in probe labeling in cells treated with compounds (liganded sites))”.
